Laboratory results reported in patent publication US4560695A, “Isoxazolyl and isothiazolyl aromatase inhibitors” (Eli Lilly and Company, priority 1984, dated 1985).

Experiments:
breast cancer = settings: Cancer Research, Vol. 42, Suppl. 8:3261s (1982); cited from earlier work
estrogen synthesis = assay: Estrogen synthesis inhibition in rats (uterine weight and ovarian steroid concentrations); type: in vivo, Wistar rats; settings: seven days
Procedure: By virtue of their ability to inhibit the enzyme aromatase, the compounds of this invention are able to inhibit the synthesis of estrogens in mammals, thereby making the compounds useful in the treatment of estrogen-dependent diseases, such as breast cancer.
Immature female Wistar rats (44-55 grams) were divided into control and test groups of 5-8 animals each. Test compounds were administered for seven days as a component of the diet. Control animals received diet without the test compound. Beginning on the fourth day of the test, all animals treated with the test compound and one half of the control animals were given a subcutaneous injection of 1.0 mg of testosterone propionate in corn oil. The remaining control animals received only an equivalent volume of corn oil. On the seventh day of the test, rats treated with testosterone propionate were injected subcutaneously with 100 μCi of [^3 H]-testosterone in 50 μl of 3:1 (v/v) saline-ethanol.
After two hours, the animals were killed by decapitation. Uteri were isolated, trimmed of extraneous connective tissue, and weighed. […] In the control animals treated with testosterone propionate, estrogens produced by aromatization stimulated the uterus resulting in an increase in weight. […] Ovaries from rats treated with [^3 H]-testosterone were excised, cleaned of extraneous tissue, and homogenized in 2.5 ml of a 1.0 mM potassium phosphate buffer containing 3.0 mM MgCl2.6H2 O, 320 mM sucrose, and 0.25% Triton X-100 (polyethylene glycol p-isooctyl phenyl ether, Rohm and Haas) at pH 6.5. The ovarian steroids were extracted with 1.5 ml of 9:1 (v/v) toluene/ethanol to which had been added 25 to 100 mcg each of unlabelled estradiol, estriol, and estrone, and approximately 1000 dpm of [^14 C]-estradiol. The samples were vortexed, centrifuged at 500×g for 10 minutes, and the organic phase was transferred to a conical vial. Two additional extractions were performed on the residue in the same way. The pooled organic extracts were evaporated for subsequent thin-layer chromatography.
Ovarian proteins were precipitated by the addition of 5.0 ml of ethanol to the remaining aqueous phase. […] Protein was determined according to the method of Bradford, Analytical Biochemistry, 72, 248 (1976). […]
The visible spots were marked and the plates were sprayed with primulin (0.001% in 4:1 v/v acetone/water) according to the method of Wright, J. Chromatography, 59, 220 (1971) which allowed for the identification of additional steroids under 365 nm UV light. […] The organic solvent was evaporated and 10.0 ml of scintillation fluid (Beckman Ready Solv-NA) was added to the vials. Samples were analyzed by liquid scintillation spectrometry. […] Steroid concentrations are expressed as femtomoles per milligram protein.

aromatase = target: T1, aromatase (Rattus norvegicus, UniProt P22443); assay: Aromatase inhibition in the rat ovarian microsome assay; type: biochemical; settings: substrate (androstenedione) concentration 0.1 μM; rat ovarian microsomes
T1 construct: ovarian microsomes are obtained from rats treated with pregnant mares serum gonadotropin; from tissue; host or cells: ovarian microsomes from rats treated with pregnant mares serum gonadotropin
T1 sequence (P22443 1-508): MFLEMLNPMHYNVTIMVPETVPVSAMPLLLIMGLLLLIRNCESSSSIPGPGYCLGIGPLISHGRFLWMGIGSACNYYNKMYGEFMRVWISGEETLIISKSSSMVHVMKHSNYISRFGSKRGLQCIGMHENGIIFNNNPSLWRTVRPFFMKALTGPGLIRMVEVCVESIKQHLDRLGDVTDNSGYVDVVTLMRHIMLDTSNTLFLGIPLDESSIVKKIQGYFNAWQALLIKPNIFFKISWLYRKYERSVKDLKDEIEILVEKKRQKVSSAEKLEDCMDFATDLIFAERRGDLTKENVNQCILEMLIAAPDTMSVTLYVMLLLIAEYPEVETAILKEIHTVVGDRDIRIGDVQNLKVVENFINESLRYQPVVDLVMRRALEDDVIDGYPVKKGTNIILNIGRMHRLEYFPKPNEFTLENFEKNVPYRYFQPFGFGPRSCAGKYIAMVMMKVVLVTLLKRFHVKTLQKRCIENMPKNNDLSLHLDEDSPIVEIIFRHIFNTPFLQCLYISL
Procedure: In this test system, ovarian microsomes are obtained from rats treated with pregnant mares serum gonadotropin. Test compounds are added to reaction vials containing 0.1 μM 4-androstene-3,17-dione, 100,000 dpm 1,2[^3 H]-androstenedione, the microsomes and a NADPH generating system. The concentrations of the inhibitors tested ranged between 0.005 and 10 μM.

CCC1(c2ccc(N)cc2)CCC(=O)NC1=O (stereo not shown) [aminoglutethimide]
Effect in treatment of breast cancer (breast cancer): beneficial effect

OC(c1ccc(Cl)cc1)(c1ccc(Cl)cc1)c1ccns1 [Example 1, α,α-Bis(4-chlorophenyl)-5-isothiazolemethanol]
Mean Uterine Weight (estrogen synthesis; 200 ppm in feed (approximately 20 mg/kg/day), testosterone propionate-treated immature female Wistar rats, 5 animals, ^+ p < 0.05 vs testosterone-treated control (203.4)): 110.8 mg
Mean Steroid Concentration, estriol (estrogen synthesis; ovaries, 200 ppm in feed, [3H]-testosterone, ^+ p < 0.05 vs testosterone-treated control (0.25)): 0.88 femtomoles per milligram of protein
Mean Steroid Concentration, estrone (estrogen synthesis; ovaries, 200 ppm in feed, [3H]-testosterone, testosterone-treated control 0.19): 0.44 femtomoles per milligram of protein
Mean Steroid Concentration, estradiol (estrogen synthesis; ovaries, 200 ppm in feed, [3H]-testosterone, testosterone-treated control 1.70): 1.18 femtomoles per milligram of protein

C[C@]12C=CC(=O)C=C1CC[C@@H]1[C@@H]2CC[C@]2(C)OC(=O)CC[C@@H]12 [testolactone]
Effect in treatment of breast cancer (breast cancer): beneficial effect

OC(c1ccccc1)(c1ccccc1)c1ccns1 [Example 2, α,α-Diphenyl-5-isothiazolemethanol]
EC50 (aromatase): 4.45 µM
